Source: BindingDB's records for aid1799745 (Csar, 2012)

Molecular target: T1, UDP-3-O-acyl-N-acetylglucosamine deacetylase (Aquifex aeolicus (strain VF5), UniProt O67648)
T1 sequence (O67648 whole entry): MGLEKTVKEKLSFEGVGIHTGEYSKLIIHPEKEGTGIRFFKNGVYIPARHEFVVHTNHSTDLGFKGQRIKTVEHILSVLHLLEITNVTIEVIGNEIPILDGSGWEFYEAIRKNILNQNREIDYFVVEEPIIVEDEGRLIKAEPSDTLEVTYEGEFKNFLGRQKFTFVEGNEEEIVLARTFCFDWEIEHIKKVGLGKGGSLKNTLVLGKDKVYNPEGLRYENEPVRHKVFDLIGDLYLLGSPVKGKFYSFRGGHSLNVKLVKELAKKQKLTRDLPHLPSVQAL
Assay: Thermofluor
Details: pH 7; 25 °C

Row | Kd [µM] | Structure (SMILES)
1 | 3.8 | O=C(NO)[C@H]1COC(c2ccc(OC(F)(F)F)c(Cl)c2)=N1 [CS270]
2 | > 100 | C[C@@H](O)[C@H](NC(=O)c1ccc(C#CC#Cc2ccccc2)cc1)C(=O)NCC1(C)NC(=O)NC1=O (stereo partly specified) [CS255]
3 | 21.5 | O=C(NO)c1csc(-c2ccc(OC(F)(F)F)c(Cl)c2)n1 [CS275]
4 | > 100 | CC1(CNC(=O)[C@H](CN)NC(=O)c2ccc(-c3ccccc3)cc2)NC(=O)NC1=O (stereo partly specified) [CS264]
5 | 0.075 | C[C@@H](O)[C@H](NC(=O)c1ccc(-c2ccccc2)cc1)C(=O)NO [CS263]
6 | > 100 | CN(C)c1ccc(C2=N[C@@H](C(=O)NO)CO2)cc1 [CS273]
7 | > 100 | CC1(CNC(=O)[C@H](CN)NC(=O)c2ccc(C#Cc3ccccc3)cc2)NC(=O)NC1=O (stereo partly specified) [CS266]
8 | > 100 | C[C@@H](O)[C@H](NC(=O)c1ccc(-c2ccc(Br)cc2)cc1)C(=O)NCC1(C)NC(=O)NC1=O (stereo partly specified) [CS256]
9 | 28.2 | CN(C)c1ccc(-c2nc(C(=O)NO)cs2)cc1 [CS278]
10 | 63.9 | CC1(CNC(=O)c2ccc(C#CC#Cc3ccccc3)cc2)NC(=O)NC1=O (stereo unspecified) [CS243]
11 | > 100 | O=C(NO)[C@H]1COC(c2ccc(OCc3cccc(F)c3)c(OC(F)(F)F)c2)=N1 [CS269]
12 | 15.6 | CCCc1ccc(-c2ccc(C3=N[C@@H](C(=O)NO)CO3)cc2)cc1 [CS274]
13 | 28.5 | O=C(NO)C1=C[SiH2]C(c2ccc(F)cc2)=N1 (stereo unspecified) [CS276]
14 | 7.25 | O=C(NO)[C@H]1COC(c2ccc([N+](=O)[O-])cc2)=N1 [CS268]
15 | > 100 | CC1(CNC(=O)[C@H](CN)NC(=O)c2ccc(C#CC#Cc3ccccc3)cc2)NC(=O)NC1=O (stereo partly specified) [CS265]
16 | 2.91 | O=C(NO)c1csc(-c2ccc(F)c(C(F)(F)F)c2)n1 [CS277]
17 | 1.03 | O=C(NO)[C@H]1COC(c2ccc(F)c(C(F)(F)F)c2)=N1 [CS271]
18 | 0.059 | NC[C@H](NC(=O)c1ccc(C#CC#Cc2ccccc2)cc1)C(=O)NO [CS252]
19 | > 100 | CC1(CNC(=O)[C@H](CN)NC(=O)c2ccc(-c3ccc(Br)cc3)cc2)NC(=O)NC1=O (stereo partly specified) [CS267]
20 | 0.033 | C[C@@H](O)[C@H](NC(=O)c1ccc(-c2ccc(Br)cc2)cc1)C(=O)NO [CS258]
21 | > 100 | C[C@@H](O)[C@H](NC(=O)c1ccc(-c2ccccc2)cc1)C(=O)NCC1(C)NC(=O)NC1=O (stereo partly specified) [CS253]
22 | > 100 | CC1(CNC(=O)c2ccc(-c3ccc(Br)cc3)cc2)NC(=O)NC1=O (stereo unspecified) [CS23]
23 | 93.4 | CC1(CNC(=O)c2ccc(C#Cc3ccccc3)cc2)NC(=O)NC1=O (stereo unspecified) [CS22]
24 | 0.02 | C[C@@H](O)[C@H](NC(=O)c1ccc(C#Cc2ccccc2)cc1)C(=O)NO [CS259]
25 | 0.393 | NC[C@H](NC(=O)c1ccc(-c2ccccc2)cc1)C(=O)NO [CS249]
26 | > 100 | CC1(CNC(=O)c2ccc(-c3ccccc3)cc2)NC(=O)NC1=O (stereo unspecified) [CS21]
27 | 11.1 | O=C(NO)[C@H]1COC(c2ccc(F)cc2)=N1 [CS279]
28 | 0.19 | NC[C@H](NC(=O)c1ccc(-c2ccc(Br)cc2)cc1)C(=O)NO [CS250]
29 | 0.008 | C[C@@H](O)[C@H](NC(=O)c1ccc(C#CC#Cc2ccccc2)cc1)C(=O)NO [CS257]
30 | > 100 | C[C@@H](O)[C@H](NC(=O)c1ccc(C#Cc2ccccc2)cc1)C(=O)NCC1(C)NC(=O)NC1=O (stereo partly specified) [CS254]

Row | Structure (SMILES) | Kd [µM]
31 | O=C(NO)[C@H]1COC(c2cc3cc(F)ccc3[nH]2)=N1 [CS272] | 2.5
